In US9790351B2, “Fat-binding compositions” (Eastpond Laboratories Limited, priority 2010, dated 2017):
Counter-ions that a name gives are not always drawn.

Key:
[1] = Binding constants of flavorants, microcalorimetric method and GC flavorant retention
From the text: The tested compounds included those that are generally soluble or miscible in water. The complexes with the cyclodextrins were formed using methods corresponding to the two specifically described examples below involving apricot flavorant and banana flavorant.
Two types of methods were used to determine the apparent binding constants noted above. The “microcalorimetric” method was used as described in Lewis et al., “Thermodynamics of binding of guest molecules to alpha- and beta-cyclodextrins,” J. Chem. Soc. Perkin. Trans. 2, (15) pp. 2081-2085, 1973, the complete disclosure of which is hereby incorporated by reference for all purposes. Also, by measuring the flavorant retention in the inclusion complexes and the corresponding mechanical mixtures (identical composition except that linear dextrin is used in place of cyclodextrins) with gas chromatography, according to the method described by Reineccius et al., “Encapsulation of flavors using cyclodextrins: comparison of flavor retention in alpha, beta, and gamma types,” Journal of Food Science, 67(9), pp. 3271-3279 (2002), the complete disclosure of which is hereby incorporated by reference for all purposes.

[2] = Association constants by capillary electrophoresis; type: binding; details: for Association constant, α-Cyclodextrin / Association constant, β-Cyclodextrin / Association constant, γ-Cyclodextrin: aqueous system, mean of three parallel determinations
Procedure: The association or binding constants of several selected weak complex-forming guest molecules with alpha-, beta- and gamma-cyclodextrins were experimentally determined. Capillary electrophoresis was utilized to determine the complex binding constants of selected dietary supplements thiamine, niacin and L-arginine in aqueous systems. The following values were determined:
Similarly, capillary electrophoresis was utilized to determine the complex binding constants of selected flavorants ethyl acetate, isoamyl acetate, diacetyl, and N,N-dimethyl formamide with alpha-, beta- and gamma-cyclodextrins.

[3] = Fat binding by a mixture of alpha-, beta- and gamma-cyclodextrins in water (precipitated inclusion complex); details: 0.01M each cyclodextrin and palmitic acid, 4 hours, ambient temperature
From the text: This reaction mixture was stirred for four hours at ambient temperature. […] The precipitate was removed by centrifugation.

[4] = system: HepG2 cells; details: cited from earlier work
[5] = Phase-solubility study of binding constant (Higuchi et al.); details: in water, 1:1 complex
From the text: The resulting 1:1, molar ratio betanin/alpha-cyclodextrin inclusion complex was a red colored, free flowing powder containing 32% betanin by weight, as determined by visible spectrophotometry. […] N. Reilly, Wiley, New York, 1965. vol. 4. pp. 117-212, the complete disclosure of which is hereby incorporated by reference for all purposes. The binding constant of the complex was Kass=85-105 M^−1

[6] = Apparent binding constant determined by chromatography; details: in water at 25° C.
Procedure: Also, the apparent binding constant of the alpha-cyclodextrin N-tert-butyl-hydroxylamine complex was determined by chromatography.

[7] = cited from earlier work
[8] = Laser light scattering particle size distribution of dissolved alpha-cyclodextrin (aggregation); type: physicochemical
From the text: These solutions were then subjected to laser light scattering to determine the distribution of particle sizes in each solution. […] Cyclodextrin molecules in a less aggregated form likely include more available binding sites for complex formation. This experiment thus provides evidence that is consistent with the conclusion that carbonation allows for the availability of more cyclodextrin binding sites for forming complexes with fats.

For `CCCCOC(C)=O` [Butyl acetate], the “Calculated Binding Constants, complex formed with alpha-cyclodextrin” value [1] was 72 M⁻¹ and the “Calculated Binding Constants, complex formed with beta-cyclodextrin” value [1] was 85 M⁻¹.
For `CCOC(C)=O` [Ethyl acetate], the “Calculated Binding Constants, complex formed with alpha-cyclodextrin” value [1] was 60 M⁻¹, the “Calculated Binding Constants, complex formed with beta-cyclodextrin” value [1] was 100 M⁻¹ and the “Association constant K, α-Cyclodextrin” value [2] was 37 M⁻¹. The “Association constant K, β-Cyclodextrin” value [2] was 10 M⁻¹ and the “Association constant K, γ-Cyclodextrin” value [2] was 9 M⁻¹.
In the case of `C=CCOC(=O)CCC` [allyl butyrate], the “Calculated Binding Constants, complex formed with alpha-cyclodextrin” value [1] is reported as 45 M⁻¹ and the “Calculated Binding Constants, complex formed with beta-cyclodextrin” value [1] is reported as 34 M⁻¹.
For `N=C(N)NCCC[C@H](N)C(=O)O` [L-arginine], the “Association constant, α-Cyclodextrin” value [2] was 21 ± 2, the “Association constant, β-Cyclodextrin” value [2] was 100 ± 5 and the “Association constant, γ-Cyclodextrin” value [2] was 9 ± 2.
For `CCCCCOC(=O)CCCC` [amyl valerate], the “Calculated Binding Constants, complex formed with alpha-cyclodextrin” value [1] was 67 M⁻¹ and the “Calculated Binding Constants, complex formed with beta-cyclodextrin” value [1] was 45 M⁻¹.
For `Cc1occc(=O)c1O` [maltol], the “Calculated Binding Constants, complex formed with alpha-cyclodextrin” value [1] was 70 M⁻¹ and the “Calculated Binding Constants, complex formed with beta-cyclodextrin” value [1] was 98 M⁻¹.
For `OC[C@H]1O[C@@H]2O[C@H]3[C@H](O)[C@@H](O)[C@@H](O[C@H]4[C@H](O)[C@@H](O)[C@@H](O[C@H]5[C@H](O)[C@@H](O)[C@@H](O[C@H]6[C@H](O)[C@@H](O)[C@@H](O[C@H]7[C@H](O)[C@@H](O)[C@@H](O[C@H]8[C@H](O)[C@@H](O)[C@@H](O[C@H]9[C@H](O)[C@@H](O)[C@@H](O[C@H]1[C@H](O)[C@H]2O)O[C@@H]9CO)O[C@@H]8CO)O[C@@H]7CO)O[C@@H]6CO)O[C@@H]5CO)O[C@@H]4CO)O[C@@H]3CO` [gamma-cyclodextrin], the “share of the cyclodextrin/palmitic acid complex in the precipitated complex” value [3] was “undetectable amounts”.
With `Cc1ncc(C[n+]2csc(CCO)c2C)c(N)n1` [Thiamine HCl] the “Association constant, α-Cyclodextrin” value [2] was 20 ± 2, the “Association constant, β-Cyclodextrin” value [2] was 73 ± 3 and the “Association constant, γ-Cyclodextrin” value [2] was 8 ± 1.
In the case of `CCCCC(=O)OCC` [ethyl valerate], the “Calculated Binding Constants, complex formed with alpha-cyclodextrin” value [1] is reported as 46 M⁻¹ and the “Calculated Binding Constants, complex formed with beta-cyclodextrin” value [1] is reported as 80 M⁻¹.
For `NCCS(=O)(=O)O` [taurine], the “secretion of apolipoprotein and lipids” value [4] is listed as “reduce the secretion of apolipoprotein 8100 and lipids”.
In the case of `CCCCOC(=O)CC(C)C` [butyl isovalerate], the “Calculated Binding Constants, complex formed with alpha-cyclodextrin” value [1] is reported as 95 M⁻¹ and the “Calculated Binding Constants, complex formed with beta-cyclodextrin” value [1] is reported as 110 M⁻¹.
In the case of `O=C(O)C1=C/C(=C/C=[N+]2/c3cc(O)c(OC4OC(CO)[C@@H](O)C(O)C4O)cc3CC2C(=O)[O-])CC(C(=O)O)N1` (stereo in doubt) [betanin], the “binding constant Kass” value [5] is reported as 85 to 105 M⁻¹.
For `CC(=O)OCCC(C)C` [isoamyl acetate], the “Association constant K, α-Cyclodextrin” value [2] was 729 M⁻¹, the “Association constant K, β-Cyclodextrin” value [2] was 382 M⁻¹ and the “Association constant K, γ-Cyclodextrin” value [2] was 32 M⁻¹.
For `CC(C)(C)NO` [N-tert-butyl-hydroxylamine], the apparent binding constant [6] was 80 to 105 M⁻¹.
For `O=C(O)c1cccnc1` [Nicotinic acid], the “Association constant, α-Cyclodextrin” value [2] was 17 ± 2, the “Association constant, β-Cyclodextrin” value [2] was 37 ± 3 and the “Association constant, γ-Cyclodextrin” value [2] was 10 ± 2.
With `CCCCCOC(C)=O` [Amyl acetate] the “Calculated Binding Constants, complex formed with alpha-cyclodextrin” value [1] was 85 M⁻¹ and the “Calculated Binding Constants, complex formed with beta-cyclodextrin” value [1] was 40 M⁻¹.
In the case of `CN(CC(=O)O)C(=N)N` [creatine], the intelligence ([7]; diet supplementation, compared with placebo) is given as “significantly increased intelligence” and the cognitive ability ([7]; elderly) is given as “improved cognitive ability”.
With `OC[C@H]1O[C@@H]2O[C@H]3[C@H](O)[C@@H](O)[C@@H](O[C@H]4[C@H](O)[C@@H](O)[C@@H](O[C@H]5[C@H](O)[C@@H](O)[C@@H](O[C@H]6[C@H](O)[C@@H](O)[C@@H](O[C@H]7[C@H](O)[C@@H](O)[C@@H](O[C@H]1[C@H](O)[C@H]2O)O[C@@H]7CO)O[C@@H]6CO)O[C@@H]5CO)O[C@@H]4CO)O[C@@H]3CO` [alpha-cyclodextrin] the “particle size of cyclodextrin particles” value ([8]; 2% w/v in carbonated water) was less than 500 nm, the “particle size of the majority of cyclodextrin particles” value ([8]; 2% w/v in non-carbonated tap water) was ~1,000 nm and the “share of the cyclodextrin/palmitic acid complex in the precipitated complex” value [3] was “about 78%”.
With `CC(=O)C(C)=O` [diacetyl] the “Association constant K, α-Cyclodextrin” value [2] was 28 M⁻¹, the “Association constant K, β-Cyclodextrin” value [2] was 43 M⁻¹ and the “Association constant K, γ-Cyclodextrin” value [2] was 58 M⁻¹.
